Common to all, as to format: cell-based
Experiment [1] has as its system HT-29 cells (colorectal adenocarcinoma). Briefly: Inhibition of cancer cell proliferation, HT-29 (CellTiterGlo, 72 hours). To be noted: Homo sapiens. The gist of the method:
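HT-29 cells seeded at 3000/well, then treated with 3-fold serial dilutions from a 5,000 nM two-fold solution in serum-free RPMI1640, untreated wells as control, for 72 h at 37° C. CellTiterGlo luminescence converted to cell number via a standard curve; GI50 from percent inhibition versus untreated growth.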

Experiment [2] has as its system A375 cells (malignant melanoma). Description: Inhibition of cancer cell proliferation, A375 (CellTiterGlo, 72 hours). To be noted: Homo sapiens, A-375. In outline:
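A375 melanoma cells, 3000/well, exposed 72 h at 37 °C to compound in 3-fold serial dilutions (solution added as 2× stock starting at 5,000 nM in serum-free DMEM). CellTiterGlo luminescence converted to cell number via standard curve; % inhibition vs untreated control, GI50 from curve fit.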

The subject of experiment [3] is HCT116 cells (colorectal carcinoma). Briefly: Inhibition of cancer cell proliferation, HCT116 (CellTiterGlo, 72 hours). To be noted: Homo sapiens, HCT-116. The gist of the method:
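3000 cells per well exposed to 3-fold serial compound dilutions from 5,000 nM (two-fold solution, stock level) for 72 hours at 37° C. CellTiterGlo luminescence converted to cell number via a standard curve; percent inhibition vs untreated wells, GI50 by curve fit.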

A word on the GI50: it is the concentration that inhibits growth by half.

Consider `C=CC(=O)Nc1cc(C)ccc1Nc1nc(Nc2ccnc3ccccc23)ncc1C(F)(F)F` [Compound I-379, N-(5-methyl-2-((2-(quinolin-4-ylamino)-5-(trifluoromethyl)pyrimidin-4-yl)amino)phenyl)acrylamide], for which the GI50 in experiment [1], in experiment [2] and in experiment [3] was 101 to 500 nM in each case.
`C=CC(=O)Nc1cc(CN2CCN(C(C)=O)CC2)ccc1Nc1nc(Nc2cc(OC)ncc2C)ncc1C(F)(F)F` [Compound I-381, N-(5-((4-acetylpiperazin-1-yl)methyl)-2-((2-((2-methoxy-5-methylpyridin-4-yl)amino)-5-(trifluoromethyl)pyrimidin-4-yl)amino)phenyl)acrylamide]: the 50% growth inhibitory concentration (GI50) in experiment [1], in experiment [2] and in experiment [3] was 101 to 500 nM each time.
As for `C=CC(=O)Nc1cc(CN2CCN(S(C)(=O)=O)CC2)ccc1Nc1nc(Nc2cc(OC)ncc2C)ncc1C(F)(F)F` [Compound I-384, N-(2-((2-((2-methoxy-5-methylpyridin-4-yl)amino)-5-(trifluoromethyl)pyrimidin-4-yl)amino)-5-((4-(methylsulfonyl)piperazin-1-yl)methyl)phenyl)acrylamide], the concentration for 50% growth inhibition (GI50) in experiment [1] is less than 100 nM; in experiment [2] it was less than 100 nM; in experiment [3] it was 101 to 500 nM.
On to `C=CC(=O)Nc1cc(CN2CCN(C(=O)c3cccnc3)CC2)ccc1Nc1nc(Nc2cc(OC)ncc2C)ncc1C(F)(F)F` [Compound I-389, N-(2-((2-((2-methoxy-5-methylpyridin-4-yl)amino)-5-(trifluoromethyl)pyrimidin-4-yl)amino)-5-((4-nicotinoylpiperazin-1-yl)methyl)phenyl)acrylamide], for which the concentration for 50% growth inhibition (GI50) in experiment [1] was less than 100 nM; in experiment [2] it was less than 100 nM; in experiment [3] it was 101 to 500 nM.
For the compound `C=CC(=O)Nc1cc(CN2CCN(C(=O)c3cnccn3)CC2)ccc1Nc1nc(Nc2cc(OC)ncc2C)ncc1C(F)(F)F` [Compound I-390, N-(2-((2-((2-methoxy-5-methylpyridin-4-yl)amino)-5-(trifluoromethyl)pyrimidin-4-yl)amino)-5-((4-(pyrazine-2-carbonyl)piperazin-1-yl)methyl)phenyl)acrylamide], the values for the GI50 in experiment [1], in experiment [2] and in experiment [3] were less than 100 nM, less than 100 nM and 101 to 500 nM, respectively.
As for `C=CC(=O)Nc1cc(OCC(N)=O)ccc1Nc1nc(Nc2cc(OC)ncc2C)ncc1C(F)(F)F` [Compound I-398, N-(5-(2-amino-2-oxoethoxy)-2-((2-((2-methoxy-5-methylpyridin-4-yl)amino)-5-(trifluoromethyl)pyrimidin-4-yl)amino)phenyl)acrylamide], the concentration for 50% growth inhibition (GI50) is less than 100 nM in experiment [1], less than 100 nM in experiment [2] and 101 to 500 nM in experiment [3].
On to `C=CC(=O)Nc1cc(CCC(N)=O)ccc1Nc1nc(Nc2cc(OC)ncc2C)ncc1C(F)(F)F` [Compound I-400, N-(5-(3-amino-3-oxopropyl)-2-((2-((2-methoxy-5-methylpyridin-4-yl)amino)-5-(trifluoromethyl)pyrimidin-4-yl)amino)phenyl)acrylamide], for which the GI50 in experiment [1] was 101 to 500 nM; in experiment [2], 101 to 500 nM; in experiment [3], 501 to 999 nM.

The record behind these values is patent US9561228B2 (Celgene Avilomics Research, Inc., priority 2013, dated 2017).
